Laboratory results as given in US9809623B2, “α4β7 peptide monomer and dimer antagonists” (Protagonist Therapeutics, Inc., priority 2014, dated 2017).
Where two headings read alike, the source gives them in different places. Numbered stars: 1 amine (or outer) side, 2 acyl side, 3 side chain; on linkers, the order of the positions; unused ones are H or OH. Bridge positions count the residues as written; N and C are the ends. Square brackets hold non-standard residues; d marks the D form. Peptide text beside a SMILES is read from it. I, II: the chains in the order shown. ξ: configuration not given here. X2 = O=C(CCOCCOCCOCCOCCOCCOCCOCCOCCOCCOCCOCCOCCOCCOCCOCCOCCOCCOCCOCCOCCOCCOCCOCCOCCOCCC(=O)[*:2])[*:1]; Phe(4-tBu) = CC(C)(C)c1ccc(C[C@H](N)C(=O)O)cc1; 1Nal = N[C@@H](Cc1cccc2ccccc12)C(=O)O; Diglycolyl = O=C(COCC(=O)[*:2])[*:1]; NMeR = CN[C@@H](CCCNC(=N)N)C(=O)O; β3hE = N[C@@H](CCC(=O)O)CC(=O)O; Thr(3ξ) = CC(O)[C@H](N)C(=O)O; NMeK = CN[C@@H](CCCCN)C(=O)O; Pen = CC(C)(S)[C@H](N)C(=O)O; dNMeK = CN[C@H](CCCCN)C(=O)O

Assays:
[1] = molecular target: T1, rh integrin α4β7 (Homo sapiens, UniProt P13612+P26010); assay: α4β7-MAdCAM Competition ELISA; assay type: binding
T1 construct: purchased R&D Systems 5397-A30
Procedure, shortened: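 Competition read-out was A450 after anti-human IgG1-HRP and TMB detection of bound recombinant human MAdCAM-1 (10 nM final). Peptides were serially diluted 3-fold from a final 10 μM and equilibrated 1 h at room temperature on nickel-captured α4β7 (800 ng/well). The buffer was Tris pH 7.6 with 1 mM Mn2+ or Mg2+.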

[2] = molecular target: T2, α4β1 (Homo sapiens, UniProt P05556+P13612, DEL729-798); assay: α4β1-VCAM Competition ELISA; assay type: binding
T2 construct: purchased R&D Systems 5668-A4
Procedure, shortened: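 ELISA plates were coated with VCAM-1 Fc at 400 ng/well. Peptide dilutions (highest final 100 μM) and 60 nM α4β1 were incubated 2 h at 37 °C in pH 7.6 Tris buffer containing 1 mM Mn2+ or Mg2+. Integrin retained on the plate was detected by 9F10 antibody, then HRP secondary, with TMB absorbance at 450 nm.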

[3] = Simulated Intestinal Fluid (SIF) Stability Assay; assay type: in vitro ADME, porcine; settings: pig, simulated intestinal fluid (SIF) with 1% porcine pancreatin
Procedure, shortened: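 Intestinal stability: percent peptide remaining over time, by LC-MS/MS peak-area ratio to internal standard, fitted to first-order decay for half-life. Conditions: 22 μM peptide, 1% pancreatin in pH 6.5 blank FASSIF, 37 °C.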

[4] = Table 3-B, Potency (α4β7), range classes, read-out: α4β7 ELISA IC50
[5] = Table 3-B, Selectivity (α4β1), range classes, read-out: α4β1 ELISA IC50
[6] = Table 4-B, read-out: ELISA α4β7 IC50
[7] = Table 4-B, read-out: ELISA_α4β1 IC50
[8] = pH 6.5, Table 4-C, t1/2, > means assay stopped at that time, read-out: SIF (porcine) Min

T2 sequence (P13612 34-977 limits assumed, stated change not applied): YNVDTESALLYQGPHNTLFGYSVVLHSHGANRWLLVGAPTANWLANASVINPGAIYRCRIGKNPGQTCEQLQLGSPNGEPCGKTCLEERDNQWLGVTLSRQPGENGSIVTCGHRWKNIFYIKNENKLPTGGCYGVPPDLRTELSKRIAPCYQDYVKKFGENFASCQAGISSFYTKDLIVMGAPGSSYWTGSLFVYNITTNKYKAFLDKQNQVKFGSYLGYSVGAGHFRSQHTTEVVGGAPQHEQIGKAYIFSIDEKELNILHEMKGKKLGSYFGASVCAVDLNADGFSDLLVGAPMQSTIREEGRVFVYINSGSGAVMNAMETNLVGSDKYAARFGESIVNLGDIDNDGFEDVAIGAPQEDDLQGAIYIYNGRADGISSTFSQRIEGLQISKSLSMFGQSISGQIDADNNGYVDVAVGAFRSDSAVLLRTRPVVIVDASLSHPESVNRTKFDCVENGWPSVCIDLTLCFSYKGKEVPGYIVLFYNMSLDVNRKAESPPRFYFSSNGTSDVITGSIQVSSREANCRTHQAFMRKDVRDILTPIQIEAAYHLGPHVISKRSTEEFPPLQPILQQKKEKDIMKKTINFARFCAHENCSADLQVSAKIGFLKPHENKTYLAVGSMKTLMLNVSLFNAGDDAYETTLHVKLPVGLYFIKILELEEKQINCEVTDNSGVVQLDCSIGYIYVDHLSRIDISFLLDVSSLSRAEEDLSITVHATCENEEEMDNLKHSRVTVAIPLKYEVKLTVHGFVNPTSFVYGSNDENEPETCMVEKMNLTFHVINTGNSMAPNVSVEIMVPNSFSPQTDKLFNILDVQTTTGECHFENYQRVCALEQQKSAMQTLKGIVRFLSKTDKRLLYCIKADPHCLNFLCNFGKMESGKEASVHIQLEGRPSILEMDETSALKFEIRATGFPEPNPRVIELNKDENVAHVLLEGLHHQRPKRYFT
T2 sequence (P05556 21-728 limits assumed, stated change not applied): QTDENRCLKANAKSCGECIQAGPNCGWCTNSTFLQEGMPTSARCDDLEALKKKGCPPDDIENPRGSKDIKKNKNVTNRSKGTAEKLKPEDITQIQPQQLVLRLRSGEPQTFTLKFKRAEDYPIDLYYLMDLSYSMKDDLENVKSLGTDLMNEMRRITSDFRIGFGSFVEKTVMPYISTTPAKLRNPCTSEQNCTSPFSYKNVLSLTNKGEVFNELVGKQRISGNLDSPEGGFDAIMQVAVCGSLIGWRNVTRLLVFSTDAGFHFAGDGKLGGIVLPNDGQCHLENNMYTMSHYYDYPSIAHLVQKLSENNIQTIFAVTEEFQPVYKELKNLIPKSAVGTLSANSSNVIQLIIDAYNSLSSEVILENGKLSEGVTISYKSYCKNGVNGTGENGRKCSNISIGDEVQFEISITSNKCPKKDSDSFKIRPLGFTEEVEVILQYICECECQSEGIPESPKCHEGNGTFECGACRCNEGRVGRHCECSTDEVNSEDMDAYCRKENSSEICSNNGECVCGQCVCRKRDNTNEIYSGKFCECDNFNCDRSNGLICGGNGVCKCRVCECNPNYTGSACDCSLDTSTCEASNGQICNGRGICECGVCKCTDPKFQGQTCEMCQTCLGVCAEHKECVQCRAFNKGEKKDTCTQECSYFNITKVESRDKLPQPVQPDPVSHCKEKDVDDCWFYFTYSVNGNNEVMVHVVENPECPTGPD
T1 sequence (P13612 34-977 limits assumed): as the sequence (P13612 34-977 limits assumed, stated change not applied) above
T1 sequence (P26010 20-723 limits assumed): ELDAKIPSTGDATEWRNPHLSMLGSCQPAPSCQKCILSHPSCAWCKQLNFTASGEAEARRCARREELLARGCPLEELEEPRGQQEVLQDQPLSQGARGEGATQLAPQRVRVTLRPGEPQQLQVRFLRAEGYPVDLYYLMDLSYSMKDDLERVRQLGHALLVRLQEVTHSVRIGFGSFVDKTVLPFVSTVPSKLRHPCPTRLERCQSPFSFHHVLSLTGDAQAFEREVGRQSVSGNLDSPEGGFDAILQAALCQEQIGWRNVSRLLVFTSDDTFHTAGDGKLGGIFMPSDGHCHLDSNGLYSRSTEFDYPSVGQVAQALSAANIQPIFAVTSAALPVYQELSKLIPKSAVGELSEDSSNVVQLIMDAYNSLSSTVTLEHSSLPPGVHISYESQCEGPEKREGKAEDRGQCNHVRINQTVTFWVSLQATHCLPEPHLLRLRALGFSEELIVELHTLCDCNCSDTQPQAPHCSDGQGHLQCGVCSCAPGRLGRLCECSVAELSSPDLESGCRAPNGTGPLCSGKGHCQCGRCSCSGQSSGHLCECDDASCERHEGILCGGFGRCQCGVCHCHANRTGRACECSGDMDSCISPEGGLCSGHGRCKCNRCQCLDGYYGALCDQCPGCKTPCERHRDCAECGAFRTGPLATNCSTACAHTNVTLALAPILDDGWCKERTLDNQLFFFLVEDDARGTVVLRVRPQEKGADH

| SMILES | IC50 [1, 4] | IC50 [2, 5] | IC50 [1, 6] | other results |
| --- | --- | --- | --- | --- |
| CC(=O)N[C@@H]1C(=O)N(C)[C@@H](CCCNC(=N)N)C(=O)N[C@@H](CO)C(=O)N[C@@H](CC(=O)O)C(=O)N[C@@H](C(C)O)C(=O)N[C@@H](CC(C)C)C(=O)N[C@H](C(=O)N[C@@H](Cc2ccc(C(C)(C)C)cc2)C(=O)N[C@@H](CCC(=O)O)CC(=O)N[C@H](CCCCNC(=O)COCC(=O)NCCCC[C@@H](NC(=O)C[C@H](CCC(=O)O)NC(=O)[C@H](Cc2ccc(C(C)(C)C)cc2)NC(=O)[C@H]2NC(=O)[C@H](CC(C)C)NC(=O)[C@H](C(C)O)NC(=O)[C@H](CC(=O)O)NC(=O)[C@H](CO)NC(=O)[C@H](CCCNC(=N)N)N(C)C(=O)[C@@H](NC(C)=O)C(C)(C)SSC2(C)C)C(N)=O)C(N)=O)C(C)(C)SSC1(C)C (stereo partly drawn) [Peptide X, [Ac-Pen-(N-Me-Arg)-Ser-Asp-Thr-Leu-Pen-(Phe(4-tBu))-(β-homoGlu)-(D-Lys)]2-DIG] (I: Ac-[Pen][NMeR]SD[Thr(3ξ)]L[Pen][Phe(4-tBu)][β3hE][dK]-NH2 / II: Ac-[Pen][NMeR]SD[Thr(3ξ)]L[Pen][Phe(4-tBu)][β3hE][dK]-NH2; disulfide I:1-I:7, II:1-II:7; linker I:10-II:10 via Diglycolyl) | – | – | – | IC50 ([1]; 1 mM Mg^2+ binding conditions, read-out: IC50 for α4β7, competition ELISA): 0.003 µM; IC50 ([2]; 1 mM Mg^2+ binding conditions, read-out: IC50 for α4β1, competition ELISA): > 10 µM; IC50 ([2]; b977, second statement, conditions not stated, read-out: IC50 for α4β1): > 100 µM |
| CC(=O)N[C@@H]1C(=O)N(C)[C@@H](CCCNC(=N)N)C(=O)N[C@@H](CO)C(=O)N[C@@H](CC(=O)O)C(=O)N[C@@H]([C@@H](C)O)C(=O)N[C@@H](CC(C)C)C(=O)N[C@H](C(=O)N[C@@H](Cc2cccc3ccccc23)C(=O)N[C@@H](CCC(=O)O)C(=O)N(C)[C@H](CCCCNC(=O)COCC(=O)NCCCC[C@H](C(N)=O)N(C)C(=O)[C@H](CCC(=O)O)NC(=O)[C@H](Cc2cccc3ccccc23)NC(=O)[C@H]2NC(=O)[C@H](CC(C)C)NC(=O)[C@H]([C@@H](C)O)NC(=O)[C@H](CC(=O)O)NC(=O)[C@H](CO)NC(=O)[C@H](CCCNC(=N)N)N(C)C(=O)[C@@H](NC(C)=O)C(C)(C)SSC2(C)C)C(N)=O)C(C)(C)SSC1(C)C [compound 44] (I: Ac-[Pen][NMeR]SDTL[Pen][1Nal]E[dNMeK]-NH2 / II: Ac-[Pen][NMeR]SDTL[Pen][1Nal]E[dNMeK]-NH2; disulfide I:1-I:7, II:1-II:7; linker I:10-II:10 via Diglycolyl) | < 0.01 µM | 0.1 to 0.5 µM | – | half-life at 22 μM ([3]; pH 6.5, Table 3-B, > means experiment was stopped at that time and half life was not reached, read-out: Stabilty SIF t1/2): > 3 h |
| CC(=O)N[C@@H]1C(=O)N(C)[C@@H](CCCNC(=N)N)C(=O)N[C@@H](CO)C(=O)N[C@@H](CC(=O)O)C(=O)N[C@@H]([C@@H](C)O)C(=O)N[C@@H](CC(C)C)C(=O)N[C@H](C(=O)N[C@@H](Cc2c[nH]c3ccccc23)C(=O)N[C@@H](CCC(=O)O)C(=O)N[C@H](CCCCNC(=O)COCC(=O)NCCCC[C@@H](NC(=O)[C@H](CCC(=O)O)NC(=O)[C@H](Cc2c[nH]c3ccccc23)NC(=O)[C@H]2NC(=O)[C@H](CC(C)C)NC(=O)[C@H]([C@@H](C)O)NC(=O)[C@H](CC(=O)O)NC(=O)[C@H](CO)NC(=O)[C@H](CCCNC(=N)N)N(C)C(=O)[C@@H](NC(C)=O)C(C)(C)SSC2(C)C)C(=O)O)C(=O)O)C(C)(C)SSC1(C)C [compound 78] (I: Ac-[Pen][NMeR]SDTL[Pen]WE[dK]-OH / II: Ac-[Pen][NMeR]SDTL[Pen]WE[dK]-OH; disulfide I:1-I:7, II:1-II:7; linker I:10-II:10 via Diglycolyl) | < 0.01 µM | 0.1 to 0.5 µM | – | – |
| CC(=O)N[C@@H]1C(=O)N(C)[C@@H](CCCNC(=N)N)C(=O)N[C@@H](CO)C(=O)N[C@@H](CC(=O)O)C(=O)N[C@@H]([C@@H](C)O)C(=O)N[C@@H](CC(C)C)C(=O)N[C@H](C(=O)N[C@@H](Cc2cccc3ccccc23)C(=O)N[C@@H](CCC(=O)O)CC(=O)N(C)[C@@H](CCCCNC(=O)COCC(=O)NCCCC[C@@H](C(N)=O)N(C)C(=O)C[C@H](CCC(=O)O)NC(=O)[C@H](Cc2cccc3ccccc23)NC(=O)[C@H]2NC(=O)[C@H](CC(C)C)NC(=O)[C@H]([C@@H](C)O)NC(=O)[C@H](CC(=O)O)NC(=O)[C@H](CO)NC(=O)[C@H](CCCNC(=N)N)N(C)C(=O)[C@@H](NC(C)=O)C(C)(C)SSC2(C)C)C(N)=O)C(C)(C)SSC1(C)C [compound 142] (I: Ac-[Pen][NMeR]SDTL[Pen][1Nal][β3hE][NMeK]-NH2 / II: Ac-[Pen][NMeR]SDTL[Pen][1Nal][β3hE][NMeK]-NH2; disulfide I:1-I:7, II:1-II:7; linker I:10-II:10 via Diglycolyl) | < 0.01 µM | 0.5 to 1 µM | – | – |
| CC(=O)N[C@H]1CSSC[C@@H](C(=O)NCC(=O)N[C@@H](CCC(=O)O)C(=O)N[C@@H](CCCCNC(=O)CCOCCOCCOCCOCCOCCOCCOCCOCCOCCOCCOCCOCCOCCOCCOCCOCCOCCOCCOCCOCCOCCOCCOCCOCCOCCC(=O)NCCCC[C@H](NC(=O)[C@H](CCC(=O)O)NC(=O)CNC(=O)[C@@H]2CSSC[C@H](NC(C)=O)C(=O)N[C@@H](CCCNC(=N)N)C(=O)N[C@@H](CO)C(=O)N[C@@H](CC(=O)O)C(=O)N[C@@H]([C@@H](C)O)C(=O)N[C@@H](CC(C)C)C(=O)N2)C(N)=O)C(N)=O)NC(=O)[C@H](CC(C)C)NC(=O)[C@H]([C@@H](C)O)NC(=O)[C@H](CC(=O)O)NC(=O)[C@H](CO)NC(=O)[C@H](CCCNC(=N)N)NC1=O [compound 197, (Ac-C-R-S-D-T-L-C-G-E-K-NH2)2-PEG25] (I: Ac-CRSDTLCGEK-NH2 / II: Ac-CRSDTLCGEK-NH2; disulfide I:1-I:7, II:1-II:7; linker I:10-II:10 via X2) | – | – | 0.036 µM | IC50 [2, 7]: 0.964 µM |
| CC(=O)N[C@H]1CSSC[C@@H](C(=O)NCC(=O)N[C@@H](CCC(=O)O)C(N)=O)NC(=O)[C@H](CC(C)C)NC(=O)[C@H]([C@@H](C)O)NC(=O)[C@H](CC(=O)O)NC(=O)[C@H](CO)NC(=O)[C@H](CCCNC(=N)N)N(C)C1=O [compound 198, Ac-C-N-Me-R-S-D-T-L-C-G-E-NH2] (Ac-C[NMeR]SDTLCGE-NH2; disulfide 1-7) | – | – | 0.02 µM | IC50 [2, 7]: 1.29 µM |
| CC(=O)N[C@@H]1C(=O)N[C@@H](CCCNC(=N)N)C(=O)N[C@@H](CO)C(=O)N[C@@H](CC(=O)O)C(=O)N[C@@H]([C@@H](C)O)C(=O)N[C@@H](CC(C)C)C(=O)N[C@H](C(=O)N[C@H](CCCCNC(=O)COCC(=O)NCCCC[C@@H](NC(=O)[C@@H]2CSSC(C)(C)[C@H](NC(C)=O)C(=O)N[C@@H](CCCNC(=N)N)C(=O)N[C@@H](CO)C(=O)N[C@@H](CC(=O)O)C(=O)N[C@@H]([C@@H](C)O)C(=O)N[C@@H](CC(C)C)C(=O)N2)C(N)=O)C(N)=O)CSSC1(C)C [compound 207, (Ac-Pen-R-S-D-T-L-C-k-NH2)2-DIG] (I: Ac-[Pen]RSDTLC[dK]-NH2 / II: Ac-[Pen]RSDTLC[dK]-NH2; disulfide I:1-I:7, II:1-II:7 (inferred); linker I:8-II:8 via Diglycolyl (inferred)) | – | – | 0.026 µM | half-life at 22 μM [3, 8]: < 0.333 h |
| CC(=O)N[C@@H]1C(=O)N(C)[C@@H](CCCNC(=N)N)C(=O)N[C@@H](CO)C(=O)N[C@@H](CC(=O)O)C(=O)N[C@@H]([C@@H](C)O)C(=O)N[C@@H](CC(C)C)C(=O)N[C@H](C(=O)N[C@@H](Cc2c[nH]c3ccccc23)C(=O)N[C@H](CCCCN)C(N)=O)C(C)(C)SSC1(C)C [compound 208, Ac-Pen-N-Me-R-S-D-T-L-Pen-W-k-NH2] (Ac-[Pen][NMeR]SDTL[Pen]W[dK]-NH2; disulfide 1-7) | – | – | 0.0305 µM | half-life at 22 μM [3, 8]: > 6 h |
